Data as given in ChEMBL document CHEMBL1201861, “Genomics of Drug Sensitity in Cancer screening data, Wellcome Trust Sanger Institute”.

Tests used:
Assay in all cases: cells
Assay type in all cases: functional, cell-based
NCI-H1437 = settings: Homo sapiens;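 also: growth inhibition of human NCI-H1437 cells, read out by a cell viability assay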
Description: SANGER: Inhibition of human NCI-H1437 cell growth in a cell viability assay.

C-33-A = settings: Homo sapiens;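 also: cell viability assay measuring growth inhibition of C-33-A cells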
Description: SANGER: Inhibition of human C-33-A cell growth in a cell viability assay.

NB12 = settings: Homo sapiens;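 also: growth inhibition of human NB12 cells, read out by a cell viability assay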
Description: SANGER: Inhibition of human NB12 cell growth in a cell viability assay.

LoVo = settings: Homo sapiens;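 also: growth inhibition of human LoVo cells, read out with a cell viability assay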
Description: SANGER: Inhibition of human LoVo cell growth in a cell viability assay.

AU565 = settings: Homo sapiens;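 also: cell viability assay measuring growth inhibition of human AU565 cells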
Description: SANGER: Inhibition of human AU565 cell growth in a cell viability assay.

G-361 = settings: Homo sapiens
NCI-H727 = settings: Homo sapiens;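 also: growth inhibition of human NCI-H727 cells, read out with a cell viability assay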
Description: SANGER: Inhibition of human NCI-H727 cell growth in a cell viability assay.

A-427 = settings: Homo sapiens;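 also: growth inhibition of human A-427 cells, read out by a cell viability assay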
Description: SANGER: Inhibition of human A427 cell growth in a cell viability assay.

NCI-H1563 = settings: Homo sapiens;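 also: growth inhibition of human NCI-H1563 cells, read out with a cell viability assay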
Description: SANGER: Inhibition of human NCI-H1563 cell growth in a cell viability assay.

COLO-679 = settings: Homo sapiens
Description: SANGER: Inhibition of human COLO-679 cell growth in a cell viability assay.

NCI-N87 = settings: Homo sapiens;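 also: growth inhibition of human NCI-N87 cells, read out with a cell viability assay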
Description: SANGER: Inhibition of human NCI-N87 cell growth in a cell viability assay.

MDA-MB-157 = settings: Homo sapiens
Description: SANGER: Inhibition of human MDA-MB-157 cell growth in a cell viability assay.

NUGC-3 = settings: Homo sapiens;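 also: growth inhibition of human NUGC-3 cells, read out with a cell viability assay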
Description: SANGER: Inhibition of human NUGC-3 cell growth in a cell viability assay.

NB14 = settings: Homo sapiens;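 also: growth inhibition of NB14 cells measured with a cell viability assay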
Description: SANGER: Inhibition of human NB14 cell growth in a cell viability assay.

Kasumi 1 = settings: Homo sapiens;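 also: growth inhibition of human Kasumi-1 cells, read out by a cell viability assay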
Description: SANGER: Inhibition of human KASUMI-1 cell growth in a cell viability assay.

CWR22R = settings: Homo sapiens, 22Rv1;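 also: growth inhibition of 22Rv1 cells, read out with a cell viability assay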
Description: SANGER: Inhibition of human 22RV1 cell growth in a cell viability assay.

HCC1395 = settings: Homo sapiens;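 also: growth inhibition of HCC1395 cells, read out by a cell viability assay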
Description: SANGER: Inhibition of human HCC1395 cell growth in a cell viability assay.

CAL-39 = settings: Homo sapiens;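 also: cell viability assay measuring growth inhibition of CAL-39 cells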
Description: SANGER: Inhibition of human CAL-39 cell growth in a cell viability assay.

DK-MG = settings: Homo sapiens;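 also: growth inhibition of DK-MG cells, read out with a cell viability assay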
Description: SANGER: Inhibition of human DK-MG cell growth in a cell viability assay.

SW1990 = settings: Homo sapiens;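 also: cell growth inhibition determined with a viability assay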
Description: SANGER: Inhibition of human SW1990 cell growth in a cell viability assay.

CHL-1 = settings: Homo sapiens;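 also: cell growth inhibition, read out with a cell viability assay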
Description: SANGER: Inhibition of human CHL-1 cell growth in a cell viability assay.

SK-MES-1 = settings: Homo sapiens;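 also: growth inhibition of human SK-MES-1 cells, read out with a cell viability assay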
Description: SANGER: Inhibition of human SK-MES-1 cell growth in a cell viability assay.

SN12C = settings: Homo sapiens;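 also: growth inhibition of human SN12C cells, measured by a cell viability assay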
Description: SANGER: Inhibition of human SN12C cell growth in a cell viability assay.

U-251 = settings: Homo sapiens;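 also: growth inhibition of human U-251 cells, read out through a cell viability assay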
Description: SANGER: Inhibition of human U251 cell growth in a cell viability assay.

LCLC-103H cell line = settings: Homo sapiens
Description: SANGER: Inhibition of human LCLC-103H cell growth in a cell viability assay.

T47D = settings: Homo sapiens;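 also: growth inhibition of human T47D cells, measured with a cell viability assay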
Description: SANGER: Inhibition of human T47D cell growth in a cell viability assay.

HCC1937 = settings: Homo sapiens;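 also: growth inhibition measured with a cell viability read-out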
Description: SANGER: Inhibition of human HCC1937 cell growth in a cell viability assay.

OVCAR-3 = settings: Homo sapiens;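 also: growth inhibition of human OVCAR-3 cells, determined by a cell viability assay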
Description: SANGER: Inhibition of human OVCAR-3 cell growth in a cell viability assay.

Daoy = settings: Homo sapiens;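 also: daoy cell growth inhibition, read out as cell viability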
Description: SANGER: Inhibition of human Daoy cell growth in a cell viability assay.

MeWo = settings: Homo sapiens;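 also: growth inhibition of MeWo cells, determined by a cell viability readout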
Description: SANGER: Inhibition of human Mewo cell growth in a cell viability assay.

J82 = settings: Homo sapiens;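 also: growth inhibition of J82 cells, read out with a cell viability assay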
Description: SANGER: Inhibition of human J82 cell growth in a cell viability assay.

HSC-2 = settings: Homo sapiens;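 also: growth inhibition of human HSC-2 cells, read out by a cell viability assay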
Description: SANGER: Inhibition of human HSC-2 cell growth in a cell viability assay.

HT-1080 = settings: Homo sapiens
Description: SANGER: Inhibition of human HT-1080 cell growth in a cell viability assay.

MDA-MB-231 = settings: Homo sapiens
Description: SANGER: Inhibition of human MDA-MB-231 cell growth in a cell viability assay.

NCI-H441 = settings: Homo sapiens;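 also: growth inhibition of NCI-H441 cells, read out with a cell viability assay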
Description: SANGER: Inhibition of human NCI-H441 cell growth in a cell viability assay.

Ca-Ski = settings: Homo sapiens;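 also: cell viability assay measuring inhibition of Ca-Ski cell growth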
Description: SANGER: Inhibition of human Ca-Ski cell growth in a cell viability assay.

NCI-H1573 = settings: Homo sapiens;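 also: growth inhibition of NCI-H1573 cells, read out with a cell viability assay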
Description: SANGER: Inhibition of human NCI-H1573 cell growth in a cell viability assay.

BXPC-3 = settings: Homo sapiens;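 also: growth inhibition of human BxPC-3 cells, read out by a cell viability assay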
Description: SANGER: Inhibition of human BxPC-3 cell growth in a cell viability assay.

HSC-3 = settings: Homo sapiens
Description: SANGER: Inhibition of human HSC-3 cell growth in a cell viability assay.

OVCAR-5 = settings: Homo sapiens;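 also: growth inhibition of human OVCAR-5 cells, read out with a cell viability assay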
Description: SANGER: Inhibition of human OVCAR-5 cell growth in a cell viability assay.

BHY = settings: Homo sapiens;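 also: cell growth inhibition read out by a viability assay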
Description: SANGER: Inhibition of human BHY cell growth in a cell viability assay.

A2780 = settings: Homo sapiens;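 also: growth inhibition of A2780 cells, read out with a cell viability assay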
Description: SANGER: Inhibition of human A2780 cell growth in a cell viability assay.

PC-14 = settings: Homo sapiens;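 also: cell viability assay measuring inhibition of PC-14 cell growth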
Description: SANGER: Inhibition of human PC-14 cell growth in a cell viability assay.

A-375 = settings: Homo sapiens;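 also: growth inhibition of A375 cells, read out with a cell viability assay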
Description: SANGER: Inhibition of human A375 cell growth in a cell viability assay.

NCI-H1623 = settings: Homo sapiens;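 also: cell viability assay used as the read-out for growth inhibition of NCI-H1623 cells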
Description: SANGER: Inhibition of human NCI-H1623 cell growth in a cell viability assay.

D-542MG = settings: Homo sapiens
Description: SANGER: Inhibition of human D-542MG cell growth in a cell viability assay.

OAW-42 = settings: Homo sapiens;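 also: growth inhibition of OAW-42 cells, read out with a cell viability assay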
Description: SANGER: Inhibition of human OAW-42 cell growth in a cell viability assay.

Cn1cc(/C=C2\C(=O)Nc3cccnc32)c2ccccc21
IC50 (NCI-H1437): > 2 µM
IC50 (C-33-A): > 2 µM
IC50 (NB12): > 2 µM
IC50 (LoVo): > 2 µM
IC50 (AU565): > 2 µM
IC50 (G-361): 0.211 µM
IC50 (NCI-H727): > 2 µM
IC50 (A-427): > 2 µM
IC50 (NCI-H1563): > 2 µM
IC50 (COLO-679): > 2 µM
IC50 (NCI-N87): > 2 µM
IC50 (MDA-MB-157): > 2 µM
IC50 (NUGC-3): > 2 µM
IC50 (NB14): > 2 µM
IC50 (Kasumi 1): > 2 µM
IC50 (CWR22R): > 2 µM
IC50 (HCC1395): > 2 µM
IC50 (CAL-39): > 2 µM
IC50 (DK-MG): > 2 µM
IC50 (SW1990): > 2 µM
IC50 (CHL-1): > 2 µM
IC50 (SK-MES-1): > 2 µM
IC50 (SN12C): > 2 µM
IC50 (U-251): > 2 µM
IC50 (LCLC-103H cell line): > 2 µM
IC50 (T47D): > 2 µM
IC50 (HCC1937): > 2 µM
IC50 (OVCAR-3): > 2 µM
IC50 (Daoy): > 2 µM
IC50 (MeWo): > 2 µM
IC50 (J82): > 2 µM
IC50 (HSC-2): > 2 µM
IC50 (HT-1080): > 2 µM
IC50 (MDA-MB-231): > 2 µM
IC50 (NCI-H441): > 2 µM
IC50 (Ca-Ski): > 2 µM
IC50 (NCI-H1573): > 2 µM
IC50 (BXPC-3): > 2 µM
IC50 (HSC-3): > 2 µM
IC50 (OVCAR-5): > 2 µM
IC50 (BHY): > 2 µM
IC50 (A2780): > 2 µM
IC50 (PC-14): > 2 µM
IC50 (A-375): > 2 µM
IC50 (NCI-H1623): > 2 µM
IC50 (D-542MG): > 2 µM
IC50 (OAW-42): > 2 µM

NC(=O)c1ncn([C@@H]2O[C@H](COP(=O)(O)O)[C@@H](O)[C@H]2O)c1N
IC50 (NCI-H1437): 599 µM
IC50 (C-33-A): > 2000 µM
IC50 (NB12): > 2000 µM
IC50 (LoVo): > 2000 µM
IC50 (AU565): 357 µM
IC50 (NCI-H727): > 2000 µM
IC50 (A-427): > 2000 µM
IC50 (NCI-N87): 1490 µM
IC50 (MDA-MB-157): 1210 µM
IC50 (NUGC-3): > 2000 µM
IC50 (NB14): 1450 µM
IC50 (CWR22R): > 2000 µM
IC50 (HCC1395): > 2000 µM
IC50 (CAL-39): > 2000 µM
IC50 (SW1990): 1120 µM
IC50 (CHL-1): > 2000 µM
IC50 (SK-MES-1): > 2000 µM
IC50 (SN12C): > 2000 µM
IC50 (U-251): > 2000 µM
IC50 (LCLC-103H cell line): 1370 µM
IC50 (T47D): 413 µM
IC50 (HCC1937): > 2000 µM
IC50 (OVCAR-3): > 2000 µM
IC50 (Daoy): 1510 µM
IC50 (MeWo): > 2000 µM
IC50 (J82): > 2000 µM
IC50 (HSC-2): 846 µM
IC50 (HT-1080): > 2000 µM
IC50 (MDA-MB-231): > 2000 µM
IC50 (NCI-H441): > 2000 µM
IC50 (Ca-Ski): > 2000 µM
IC50 (NCI-H1573): 353 µM
IC50 (BXPC-3): 1350 µM
IC50 (HSC-3): 259 µM
IC50 (OVCAR-5): > 2000 µM
IC50 (BHY): 405 µM
IC50 (A2780): 1860 µM
IC50 (PC-14): 379 µM
IC50 (A-375): > 2000 µM
IC50 (NCI-H1623): > 2000 µM
IC50 (OAW-42): > 2000 µM

CC[C@@]1(O)C(=O)OCc2c1cc1n(c2=O)Cc2cc3ccccc3nc2-1 [CAMPTOTHECIN]
IC50 (NCI-H1437): 0.0349 µM
IC50 (C-33-A): 0.00648 µM
IC50 (NB12): 0.044 µM
IC50 (LoVo): 0.0149 µM
IC50 (AU565): 0.00368 µM
IC50 (G-361): > 0.1 µM
IC50 (NCI-H727): > 0.1 µM
IC50 (A-427): 0.00425 µM
IC50 (COLO-679): > 0.1 µM
IC50 (NCI-N87): 0.00874 µM
IC50 (MDA-MB-157): 0.00757 µM
IC50 (NUGC-3): 0.00314 µM
IC50 (NB14): 0.000907 µM
IC50 (Kasumi 1): 0.00407 µM
IC50 (CWR22R): 0.00931 µM
IC50 (HCC1395): > 0.1 µM
IC50 (CAL-39): 0.0192 µM
IC50 (DK-MG): 0.0847 µM
IC50 (SW1990): 0.0379 µM
IC50 (CHL-1): 0.00609 µM
IC50 (SK-MES-1): 0.0108 µM
IC50 (SN12C): 0.0045 µM
IC50 (U-251): 0.00187 µM
IC50 (LCLC-103H cell line): 0.0205 µM
IC50 (T47D): 0.0135 µM
IC50 (OVCAR-3): > 0.1 µM
IC50 (Daoy): 0.000481 µM
IC50 (MeWo): 0.047 µM
IC50 (J82): 0.00472 µM
IC50 (HSC-2): 0.0117 µM
IC50 (HT-1080): 0.000394 µM
IC50 (NCI-H441): 0.0285 µM
IC50 (Ca-Ski): 0.00497 µM
IC50 (HSC-3): 0.00302 µM
IC50 (OVCAR-5): 0.0433 µM
IC50 (BHY): 0.00531 µM
IC50 (A2780): 0.0029 µM
IC50 (PC-14): 0.0136 µM
IC50 (A-375): 0.00369 µM
IC50 (NCI-H1623): 0.000748 µM
IC50 (OAW-42): 0.00899 µM
